# Test results published in patent US10292391B2, “Pesticidally active 1,2,4-triazole derivatives with sulphur containing substituents” (Syngenta Participations AG, priority 2015, dated 2019).
# What was measured:
# [1] = test system: Spodoptera littoralis (Egyptian Cotton Leaf Worm); assay: Activity against Spodoptera littoralis, sprayed cotton leaf discs; assay type: in vivo; conditions: foliar, 72 h, application rate of 200 ppm, L1 larvae, 3 days after infestation, read-out: control (at least one of mortality, anti-feedant effect, and growth inhibition)
# [2] = test system: Spodoptera littoralis (Egyptian Cotton Leaf Worm); assay: Activity against Spodoptera littoralis, systemic via lettuce grown on treated agar; assay type: in vivo; conditions: 144 h, test rate of 12.5 ppm, root uptake by lettuce, 6 days after infestation, read-out: effect in at least one of the three categories (mortality, anti-feedancy, or growth inhibition)
# [3] = test system: Plutella xylostella (Diamond Back Moth); assay: Activity against Plutella xylostella, treated artificial diet; assay type: in vivo; conditions: 120 h, application rate of 200 ppm, L2 larvae, 5 days after infestation, read-out: effect in at least one of the two categories (mortality or growth inhibition)
# Procedure: (§1) 24-well microtiter plates with artificial diet were treated with aqueous test solutions prepared from 10,000 ppm DMSO stock solutions by pipetting. After drying, the plates were infested with L2 larvae (10 to 15 per well). The samples were assessed for mortality and growth inhibition in comparison to untreated samples 5 days after infestation.
# [4] = test system: Diabrotica Balteata (Corn Root Worm); assay: Activity against Diabrotica balteata, sprayed maize sprouts; assay type: in vivo; conditions: 96 h, application rate of 200 ppm, L2 larvae, 4 days after infestation, read-out: effect in at least one of the two categories (mortality or growth inhibition)
# Procedure: as §1, with “Maize sprouts, placed on an agar layer in 24-well” for “24-well”, “plates” for “plates with artificial diet”, “spraying.” for “pipetting.”, “(6” for “(10”, “10” for “15”, “4” for “5”
# [5] = test system: Myzus persicae (Green Peach Aphid); assay: Activity against Myzus persicae, sprayed sunflower leaf discs; assay type: in vivo; conditions: foliar, 144 h, application rate of 200 ppm, aphid population of mixed ages, 6 days after infestation
# Procedure: (§2) Sunflower leaf discs were placed on agar in a 24-well microtiter plate and sprayed with aqueous test solutions prepared from 10,000 ppm DMSO stock solutions. After drying, the leaf discs were infested with an aphid population of mixed ages. The samples were assessed for mortality 6 days after infestation.
# [6] = test system: Myzus persicae (Green Peach Aphid); assay: Activity against Myzus persicae, systemic via roots of pea seedlings; assay type: in vivo; conditions: 144 h, test rate of 24 ppm, roots of pea seedlings in test solution, 6 days
# Procedure: Roots of pea seedlings infested with an aphid population of mixed ages were placed directly in the aqueous test solutions prepared from 10,000 DMSO stock solutions. The samples were assessed for mortality 6 days after placing seedlings in test solutions.
# [7] = test system: Frankliniella occidentalis (Western Flower Thrips); assay: Activity against Frankliniella occidentalis, sprayed sunflower leaf discs; assay type: in vivo; conditions: foliar, 168 h, application rate of 200 ppm, population of mixed ages, 7 days after infestation
# Procedure: as §2, with “in” for “in a”, “plates” for “plate”, “10,000” for “10,000 ppm”, “drying” for “drying,”, “a Frankliniella” for “an aphid”, “7” for “6”
# [8] = test system: Bemisia tabaci (Cotton White Fly); assay: Activity against Bemisia tabaci, sprayed cotton leaf discs; assay type: in vivo; conditions: foliar, 144 h, application rate of 200 ppm, adult white flies, 6 days after incubation
# Procedure: Cotton leaf discs were placed on agar in 24-well microtiter plates and sprayed with aqueous test solutions prepared from 10,000 ppm DMSO stock solutions. After drying the leaf discs were infested with adult white flies. The samples were checked for mortality 6 days after incubation.
# [9] = test system: Euschistus heros(Neotropical Brown Stink Bug); assay: Activity against Euschistus heros, sprayed soybean leaf; assay type: in vivo; conditions: 120 h, application rate of 200 ppm, N-2 nymphs, 5 days after infestation, read-out: effect in at least one of the two categories (mortality or growth inhibition)
# Procedure: Soybean leaf on agar in 24-well microtiter plates were sprayed with aqueous test solutions prepared from 10,000 ppm DMSO stock solutions. After drying the leaf were infested with N-2 nymphs. The samples were assessed for mortality and growth inhibition in comparison to untreated samples 5 days after infestation.
# [10] = test system: Thrips tabaci (Onion Thrips); assay: Activity against Thrips tabaci, sprayed sunflower leaf discs; assay type: in vivo; conditions: foliar, 144 h, application rate of 200 ppm, thrips population of mixed ages, 6 days after infestation
# Procedure: as §2, with “in” for “in a”, “plates” for “plate”, “drying” for “drying,”, “a thrips” for “an aphid”
# [11] = test system: Tetranychus urticae (Two-Spotted Spider Mite); assay: Activity against Tetranychus urticae, sprayed bean leaf discs; assay type: in vivo; conditions: foliar, 192 h
# Procedure: Bean leaf discs on agar in 24-well microtiter plates were sprayed with aqueous test solutions prepared from 10,000 ppm DMSO stock solutions. After drying the leaf discs were infested with a mite population of mixed ages. The samples were assessed for mortality on mixed population (mobile stages) 8 days after infestation.
structure (smiles),measurement,setting,value
"CCS(=O)(=O)c1cc(C2(C#N)CC2)cnc1-c1nnc(-c2cc(C(F)(F)F)ccn2)n1C [Compound P17, 1-[5-ethylsulfonyl-6-[4-methyl-5-[4-(trifluoromethyl)-2-pyridyl]-1,2,4-triazol-3-yl]-3-pyridyl]cyclopropanecarbonitrile]",mortality at 200 ppm,[1],≥ 80%
same,"percent control (mortality, anti-feedancy or growth inhibition) at 12.5 ppm",[2],≥ 80%
same,percent effect (mortality or growth inhibition) at 200 ppm,[3],≥ 80%
same,percent effect (mortality or growth inhibition) at 200 ppm,[4],≥ 80%
same,mortality at 200 ppm,[5],≥ 80%
same,mortality at 24 ppm,[6],≥ 80%
same,mortality at 200 ppm,[7],≥ 80%
same,mortality at 200 ppm,[8],≥ 80%
same,percent effect (mortality or growth inhibition) at 200 ppm,[9],≥ 80%
same,mortality at 200 ppm,[10],≥ 80%
CCS(=O)(=O)c1cc(-c2nccc(C#N)n2)cnc1-c1nnc(-c2cc(C(F)(F)F)ccn2)n1C [Compound P19],mortality at 200 ppm,[1],≥ 80%
same,percent effect (mortality or growth inhibition) at 200 ppm,[4],≥ 80%
same,mortality at 200 ppm,[11],≥ 80%
CCS(=O)(=O)c1cc(-n2cnc(Cl)n2)cnc1-c1nnc(-c2cc(C(F)(F)F)ccn2)n1C [Compound P27],mortality at 200 ppm,[1],≥ 80%
same,"percent control (mortality, anti-feedancy or growth inhibition) at 12.5 ppm",[2],≥ 80%
same,percent effect (mortality or growth inhibition) at 200 ppm,[3],≥ 80%
same,percent effect (mortality or growth inhibition) at 200 ppm,[4],≥ 80%
same,mortality at 200 ppm,[5],≥ 80%
same,mortality at 24 ppm,[6],≥ 80%
same,mortality at 200 ppm,[7],≥ 80%
same,mortality at 200 ppm,[8],≥ 80%
same,percent effect (mortality or growth inhibition) at 200 ppm,[9],≥ 80%
same,mortality at 200 ppm,[10],≥ 80%
"CCSc1ccc(-c2ccc(C(F)(F)F)cc2)nc1-c1nnc(-c2cc(C(F)(F)F)ccn2)n1C [Compound P31, 3-ethylsulfanyl-2-[4-methyl-5-[4-(trifluoromethyl)-2-pyridyl]-1,2,4-triazol-3-yl]-6-[4-(trifluoromethyl)phenyl]pyridine]",melting point,,174 to 175 °C
"CCSc1cc(SC(F)(F)F)cnc1-c1nnc(-c2cc(C(F)(F)F)ccn2)n1C [Compound P33, 3-ethylsulfanyl-2-[4-methyl-5-[4-(trifluoromethyl)-2-pyridyl]-1,2,4-triazol-3-yl]-5-(trifluoromethylsulfanyl)pyridine]",melting point,,94 to 95 °C
CCS(=O)(=O)c1ccc(-n2cnc(C#N)n2)nc1-c1nnc(-c2cc(C(F)(F)F)ncn2)n1C [Compound P49],melting point,,242 to 244 °C
CCS(=O)(=O)c1ccc(-c2cccc(F)c2)nc1-c1nnc(-c2cc(C(F)(F)F)ncn2)n1C [Compound P51],melting point,,201 to 203 °C
